{"source": "PubChem BioAssay AID1963844", "about": "(Molecular Pharmacology Branch, DTP, NCI, 2024);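 note: spheroids exposed to compounds for one week before readout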;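 for viability, T/C: percent of DMSO vehicle wells luminescence so 100% = untreated viability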", "test_system": "422866-222-R5-J1-PDC complex spheroid viability", "experiment": "Anticancer human tumor 422866-222-R5-J1-PDC patient-derived pancreatic adenocarcinoma cell line growth inhibition [POLQ]", "settings": "for IC50: curve of first compound; for viability, T/C: stronger effect = lower value", "outline": "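PDC + HUVEC + MSC complex spheroids; POLQ inhibitors ± partner drugs; top conc. at/near clinical Cmax, else 10 microM (SN-38 1 microM), half-log dilutions; 37 degrees C, 5% CO2.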", "key": {"[1]": {"settings": "second compound 0.0316 µM, first compound 0.0316 µM"}, "[2]": {"settings": "second compound 0.0316 µM, first compound 0.1 µM"}, "[3]": {"settings": "second compound 0.0316 µM, first compound 0.316 µM"}, "[4]": {"settings": "second compound 0.0316 µM, first compound 1 µM"}, "[5]": {"settings": "second compound 0.0316 µM, first compound 3.16 µM"}, "[6]": {"settings": "second compound 0.0316 µM, first compound 10 µM"}, "[7]": {"settings": "second compound 0.1 µM, first compound 0.0316 µM"}, "[8]": {"settings": "second compound 0.1 µM, first compound 0.1 µM"}, "[9]": {"settings": "second compound 0.1 µM, first compound 0.316 µM"}, "[10]": {"settings": "second compound 0.1 µM, first compound 1 µM"}, "[11]": {"settings": "second compound 0.1 µM, first compound 3.16 µM"}, "[12]": {"settings": "second compound 0.1 µM, first compound 10 µM"}, "[13]": {"settings": "second compound 0.316 µM, first compound 0.0316 µM"}, "[14]": {"settings": "second compound 0.316 µM, first compound 0.1 µM"}, "[15]": {"settings": "second compound 0.316 µM, first compound 0.316 µM"}, "[16]": {"settings": "second compound 0.316 µM, first compound 1 µM"}, "[17]": {"settings": "second compound 0.316 µM, first compound 3.16 µM"}, "[18]": {"settings": "second compound 0.316 µM, first compound 10 µM"}, "[19]": {"settings": "second compound 1 µM, first compound 0.0316 µM"}, "[20]": {"settings": "second compound 1 µM, first compound 0.1 µM"}, "[21]": {"settings": "second compound 1 µM, first compound 0.316 µM"}, "[22]": {"settings": "second compound 1 µM, first compound 1 µM"}, "[23]": {"settings": "second compound 1 µM, first compound 3.16 µM"}, "[24]": {"settings": "second compound 1 µM, first compound 10 µM"}, "[25]": {"settings": "second compound 3.16 µM, first compound 0.0316 µM"}, "[26]": {"settings": "second compound 3.16 µM, first compound 0.1 µM"}, "[27]": {"settings": "second compound 3.16 µM, first compound 0.316 µM"}, "[28]": {"settings": "second compound 3.16 µM, first compound 1 µM"}, "[29]": {"settings": "second compound 3.16 µM, first compound 3.16 µM"}, "[30]": {"settings": "second compound 3.16 µM, first compound 10 µM"}, "[31]": {"settings": "second compound 10 µM, first compound 0.0316 µM"}, "[32]": {"settings": "second compound 10 µM, first compound 0.1 µM"}, "[33]": {"settings": "second compound 10 µM, first compound 0.316 µM"}, "[34]": {"settings": "second compound 10 µM, first compound 1 µM"}, "[35]": {"settings": "second compound 10 µM, first compound 3.16 µM"}, "[36]": {"settings": "second compound 10 µM, first compound 10 µM"}}}
{"smiles": "Nc1ccn(C2OC(CO)C(O)C2(F)F)c(=O)n1", "note": "(centres undefined) + Cc1cccc(N(C)C(=O)C2C(O)CCN2c2nc(C)cc(C(F)(F)F)c2C#N)c1", "values": [{"measurement": "IC50", "setting": "second compound 0.0316 µM", "result": 98.9, "unit": "nM"}, {"measurement": "IC50", "setting": "second compound 0.1 µM", "result": 76.6, "unit": "nM"}, {"measurement": "IC50", "setting": "second compound 0.316 µM", "result": 82.4, "unit": "nM"}, {"measurement": "IC50", "setting": "second compound 1 µM", "result": 119, "unit": "nM"}, {"measurement": "IC50", "setting": "second compound 3.16 µM", "result": 154, "unit": "nM"}, {"measurement": "IC50", "setting": "second compound 10 µM", "result": 120, "unit": "nM"}, {"measurement": "viability, T/C", "setting": "[1]", "result": 77.9, "unit": "%"}, {"measurement": "viability, T/C", "setting": "[2]", "result": 50.4, "unit": "%"}, {"measurement": "viability, T/C", "setting": "[3]", "result": 40.4, "unit": "%"}, {"measurement": "viability, T/C", "setting": "[4]", "result": 36.1, "unit": "%"}, {"measurement": "viability, T/C", "setting": "[5]", "result": 36.1, "unit": "%"}, {"measurement": "viability, T/C", "setting": "[6]", "result": 42.9, "unit": "%"}, {"measurement": "viability, T/C", "setting": "[7]", "result": 68.8, "unit": "%"}, {"measurement": "viability, T/C", "setting": "[8]", "result": 43.2, "unit": "%"}, {"measurement": "viability, T/C", "setting": "[9]", "result": 40.5, "unit": "%"}, {"measurement": "viability, T/C", "setting": "[10]", "result": 38.6, "unit": "%"}, {"measurement": "viability, T/C", "setting": "[11]", "result": 35.5, "unit": "%"}, {"measurement": "viability, T/C", "setting": "[12]", "result": 35.4, "unit": "%"}, {"measurement": "viability, T/C", "setting": "[13]", "result": 69, "unit": "%"}, {"measurement": "viability, T/C", "setting": "[14]", "result": 45.3, "unit": "%"}, {"measurement": "viability, T/C", "setting": "[15]", "result": 40.3, "unit": "%"}, {"measurement": "viability, T/C", "setting": "[16]", "result": 38.1, "unit": "%"}, {"measurement": "viability, T/C", "setting": "[17]", "result": 35, "unit": "%"}, {"measurement": "viability, T/C", "setting": "[18]", "result": 34.8, "unit": "%"}, {"measurement": "viability, T/C", "setting": "[19]", "result": 68.7, "unit": "%"}, {"measurement": "viability, T/C", "setting": "[20]", "result": 51.6, "unit": "%"}, {"measurement": "viability, T/C", "setting": "[21]", "result": 41.4, "unit": "%"}, {"measurement": "viability, T/C", "setting": "[22]", "result": 37.3, "unit": "%"}, {"measurement": "viability, T/C", "setting": "[23]", "result": 38.6, "unit": "%"}, {"measurement": "viability, T/C", "setting": "[24]", "result": 40.2, "unit": "%"}, {"measurement": "viability, T/C", "setting": "[25]", "result": 83.7, "unit": "%"}, {"measurement": "viability, T/C", "setting": "[26]", "result": 54.2, "unit": "%"}, {"measurement": "viability, T/C", "setting": "[27]", "result": 41.9, "unit": "%"}, {"measurement": "viability, T/C", "setting": "[28]", "result": 43.2, "unit": "%"}, {"measurement": "viability, T/C", "setting": "[29]", "result": 37.8, "unit": "%"}, {"measurement": "viability, T/C", "setting": "[30]", "result": 38, "unit": "%"}, {"measurement": "viability, T/C", "setting": "[31]", "result": 68, "unit": "%"}, {"measurement": "viability, T/C", "setting": "[32]", "result": 51.9, "unit": "%"}, {"measurement": "viability, T/C", "setting": "[33]", "result": 45.2, "unit": "%"}, {"measurement": "viability, T/C", "setting": "[34]", "result": 39.9, "unit": "%"}, {"measurement": "viability, T/C", "setting": "[35]", "result": 38.9, "unit": "%"}, {"measurement": "viability, T/C", "setting": "[36]", "result": 48.5, "unit": "%"}]}
{"smiles": "O=C(c1cc(Cc2n[nH]c(=O)c3ccccc23)ccc1F)N1CCN(C(=O)C2CC2)CC1", "note": "+ Cc1cccc(N(C)C(=O)C2C(O)CCN2c2nc(C)cc(C(F)(F)F)c2C#N)c1", "values": [{"measurement": "IC50", "setting": "second compound 0.0316 µM", "result": "> 10000", "unit": "nM"}, {"measurement": "IC50", "setting": "second compound 0.1 µM", "result": "> 10000", "unit": "nM"}, {"measurement": "IC50", "setting": "second compound 0.316 µM", "result": "> 10000", "unit": "nM"}, {"measurement": "IC50", "setting": "second compound 1 µM", "result": "> 10000", "unit": "nM"}, {"measurement": "IC50", "setting": "second compound 3.16 µM", "result": "> 10000", "unit": "nM"}, {"measurement": "IC50", "setting": "second compound 10 µM", "result": "> 10000", "unit": "nM"}, {"measurement": "viability, T/C", "setting": "[1]", "result": 87.5, "unit": "%"}, {"measurement": "viability, T/C", "setting": "[2]", "result": 103, "unit": "%"}, {"measurement": "viability, T/C", "setting": "[3]", "result": 89.9, "unit": "%"}, {"measurement": "viability, T/C", "setting": "[4]", "result": 92.9, "unit": "%"}, {"measurement": "viability, T/C", "setting": "[5]", "result": 89.7, "unit": "%"}, {"measurement": "viability, T/C", "setting": "[6]", "result": 68.2, "unit": "%"}, {"measurement": "viability, T/C", "setting": "[7]", "result": 95.3, "unit": "%"}, {"measurement": "viability, T/C", "setting": "[8]", "result": 104, "unit": "%"}, {"measurement": "viability, T/C", "setting": "[9]", "result": 99, "unit": "%"}, {"measurement": "viability, T/C", "setting": "[10]", "result": 87.4, "unit": "%"}, {"measurement": "viability, T/C", "setting": "[11]", "result": 87.5, "unit": "%"}, {"measurement": "viability, T/C", "setting": "[12]", "result": 81.7, "unit": "%"}, {"measurement": "viability, T/C", "setting": "[13]", "result": 117, "unit": "%"}, {"measurement": "viability, T/C", "setting": "[14]", "result": 95.9, "unit": "%"}, {"measurement": "viability, T/C", "setting": "[15]", "result": 107, "unit": "%"}, {"measurement": "viability, T/C", "setting": "[16]", "result": 97.6, "unit": "%"}, {"measurement": "viability, T/C", "setting": "[17]", "result": 97.5, "unit": "%"}, {"measurement": "viability, T/C", "setting": "[18]", "result": 67.3, "unit": "%"}, {"measurement": "viability, T/C", "setting": "[19]", "result": 96.2, "unit": "%"}, {"measurement": "viability, T/C", "setting": "[20]", "result": 94.4, "unit": "%"}, {"measurement": "viability, T/C", "setting": "[21]", "result": 86, "unit": "%"}, {"measurement": "viability, T/C", "setting": "[22]", "result": 90.5, "unit": "%"}, {"measurement": "viability, T/C", "setting": "[23]", "result": 82.2, "unit": "%"}, {"measurement": "viability, T/C", "setting": "[24]", "result": 68, "unit": "%"}, {"measurement": "viability, T/C", "setting": "[25]", "result": 87.3, "unit": "%"}, {"measurement": "viability, T/C", "setting": "[26]", "result": 104, "unit": "%"}, {"measurement": "viability, T/C", "setting": "[27]", "result": 104, "unit": "%"}, {"measurement": "viability, T/C", "setting": "[28]", "result": 107, "unit": "%"}, {"measurement": "viability, T/C", "setting": "[29]", "result": 86.1, "unit": "%"}, {"measurement": "viability, T/C", "setting": "[30]", "result": 68, "unit": "%"}, {"measurement": "viability, T/C", "setting": "[31]", "result": 104, "unit": "%"}, {"measurement": "viability, T/C", "setting": "[32]", "result": 107, "unit": "%"}, {"measurement": "viability, T/C", "setting": "[33]", "result": 97.7, "unit": "%"}, {"measurement": "viability, T/C", "setting": "[34]", "result": 89.8, "unit": "%"}, {"measurement": "viability, T/C", "setting": "[35]", "result": 80.3, "unit": "%"}, {"measurement": "viability, T/C", "setting": "[36]", "result": 76.4, "unit": "%"}]}
